{
  "source": "the OligoGym collection",
  "note": "HELM strings list units from the 5' end as sugar, base in round brackets, then linkage (d deoxyribose, r ribose, m 2'-O-methyl, p phosphodiester). Strings are as the collection lists them; they lack the last nucleoside at the 3' end of the tested compound. [moe] = 2'-O-(2-methoxyethyl) (MOE); [sp] = phosphorothioate linkage; [m5C] = 5-methylcytosine",
  "data": [
    {"biological_target": "APP", "assay": "mouse, dose not given", "settings": "ASO", "units": {"3 h FOB score": "score 0-7"}, "values": [
      {"substance": "RNA1{[moe](T)[sp].[moe]([m5C])p.[moe](A)p.[moe]([m5C])p.[moe](A)[sp].d(G)[sp].d(T)[sp].d(T)[sp].d(T)[sp].d(A)[sp].d([m5C])[sp].d([m5C])[sp].d([m5C])[sp].d([m5C])[sp].d(A)[sp].[moe](A)p.[moe](G)p.[moe]([m5C])[sp].[moe](T)}$$$$ (last 3' nucleoside missing)", "3 h FOB score": 0},
      {"substance": "RNA1{[moe](T)[sp].[moe]([m5C])p.[moe](G)p.[moe](G)p.[moe](A)[sp].d([m5C])[sp].d(T)[sp].d(T)[sp].d(A)[sp].d([m5C])[sp].d(T)[sp].d(G)[sp].d(T)[sp].d(A)[sp].d(A)[sp].[moe](T)p.[moe](G)p.[moe](G)[sp].[moe](G)}$$$$ (last 3' nucleoside missing)", "3 h FOB score": 1.25},
      {"substance": "RNA1{[moe](T)[sp].[moe]([m5C])p.[moe](T)p.[moe](G)p.[moe](A)[sp].d(T)[sp].d(A)[sp].d(T)[sp].d(T)[sp].d([m5C])[sp].d(A)[sp].d([m5C])[sp].d(T)[sp].d(T)[sp].d(A)[sp].[moe](T)p.[moe]([m5C])p.[moe](T)[sp].[moe](G)}$$$$ (last 3' nucleoside missing)", "3 h FOB score": 0},
      {"substance": "RNA1{[moe](T)[sp].[moe]([m5C])p.[moe](T)p.[moe](G)p.[moe](T)[sp].d(A)[sp].d(T)[sp].d(T)[sp].d(A)[sp].d(T)[sp].d(A)[sp].d([m5C])[sp].d(T)[sp].d([m5C])[sp].d(T)[sp].[moe](G)p.[moe](G)p.[moe](G)[sp].[moe]([m5C])}$$$$ (last 3' nucleoside missing)", "3 h FOB score": 2.5},
      {"substance": "RNA1{[moe](T)[sp].[moe]([m5C])p.[moe](T)p.[moe](T)p.[moe](G)[sp].d(A)[sp].d(T)[sp].d(A)[sp].d(T)[sp].d(T)[sp].d(T)[sp].d(G)[sp].d(T)[sp].d([m5C])[sp].d(A)[sp].[moe](A)p.[moe]([m5C])p.[moe]([m5C])[sp].[moe]([m5C])}$$$$ (last 3' nucleoside missing)", "3 h FOB score": 5},
      {"substance": "RNA1{[moe](T)[sp].[moe]([m5C])p.[moe](T)p.[moe](T)p.[moe]([m5C])[sp].d(A)[sp].d(A)[sp].d([m5C])[sp].d(T)[sp].d(T)[sp].d(A)[sp].d(G)[sp].d(T)[sp].d([m5C])[sp].d(A)[sp].[moe](T)p.[moe]([m5C])p.[moe]([m5C])[sp].[moe](T)}$$$$ (last 3' nucleoside missing)", "3 h FOB score": 0},
      {"substance": "RNA1{[moe](T)[sp].[moe]([m5C])p.[moe](T)p.[moe](T)p.[moe]([m5C])[sp].d(A)[sp].d([m5C])[sp].d(T)[sp].d([m5C])[sp].d([m5C])[sp].d([m5C])[sp].d(A)[sp].d(T)[sp].d([m5C])[sp].d(T)[sp].[moe](G)p.[moe]([m5C])p.[moe](A)[sp].[moe](T)}$$$$ (last 3' nucleoside missing)", "3 h FOB score": 1},
      {"substance": "RNA1{[moe](T)[sp].[moe]([m5C])p.[moe](T)p.[moe](T)p.[moe]([m5C])[sp].d(T)[sp].d(T)[sp].d([m5C])[sp].d([m5C])[sp].d(A)[sp].d([m5C])[sp].d([m5C])[sp].d(T)[sp].d([m5C])[sp].d(A)[sp].[moe](G)p.[moe]([m5C])p.[moe]([m5C])[sp].[moe](A)}$$$$ (last 3' nucleoside missing)", "3 h FOB score": 0.5},
      {"substance": "RNA1{[moe](T)[sp].[moe]([m5C])p.[moe](T)p.[moe](T)p.[moe]([m5C])[sp].d([m5C])[sp].d([m5C])[sp].d(A)[sp].d([m5C])[sp].d(A)[sp].d(T)[sp].d(T)[sp].d(A)[sp].d(T)[sp].d(T)[sp].[moe]([m5C])p.[moe](T)p.[moe](A)[sp].[moe](T)}$$$$ (last 3' nucleoside missing)", "3 h FOB score": 0},
      {"substance": "RNA1{[moe](T)[sp].[moe]([m5C])p.[moe](T)p.[moe]([m5C])p.[moe](A)[sp].d(T)[sp].d(A)[sp].d(G)[sp].d(T)[sp].d([m5C])[sp].d(T)[sp].d(T)[sp].d(A)[sp].d(A)[sp].d(T)[sp].[moe](T)p.[moe]([m5C])p.[moe]([m5C])[sp].[moe]([m5C])}$$$$ (last 3' nucleoside missing)", "3 h FOB score": 0},
      {"substance": "RNA1{[moe](T)[sp].[moe]([m5C])p.[moe](T)p.[moe]([m5C])p.[moe](T)[sp].d([m5C])[sp].d(A)[sp].d(T)[sp].d(A)[sp].d(G)[sp].d(T)[sp].d([m5C])[sp].d(T)[sp].d(T)[sp].d(A)[sp].[moe](A)p.[moe](T)p.[moe](T)[sp].[moe]([m5C])}$$$$ (last 3' nucleoside missing)", "3 h FOB score": 0},
      {"substance": "RNA1{[moe](T)[sp].[moe]([m5C])p.[moe](T)p.[moe]([m5C])p.[moe]([m5C])[sp].d(A)[sp].d(A)[sp].d(T)[sp].d(T)[sp].d(T)[sp].d(T)[sp].d(A)[sp].d(A)[sp].d([m5C])[sp].d(T)[sp].[moe](T)p.[moe](G)p.[moe]([m5C])[sp].[moe](A)}$$$$ (last 3' nucleoside missing)", "3 h FOB score": 0},
      {"substance": "RNA1{[moe](T)[sp].[moe]([m5C])p.[moe]([m5C])p.[moe](A)p.[moe](A)[sp].d(A)[sp].d(G)[sp].d(A)[sp].d(T)[sp].d(T)[sp].d([m5C])[sp].d([m5C])[sp].d(A)[sp].d([m5C])[sp].d(T)[sp].[moe](T)p.[moe](T)p.[moe]([m5C])[sp].[moe](T)}$$$$ (last 3' nucleoside missing)", "3 h FOB score": 0.5},
      {"substance": "RNA1{[moe](T)[sp].[moe]([m5C])p.[moe]([m5C])p.[moe](A)p.[moe](A)[sp].d(T)[sp].d(T)[sp].d(T)[sp].d(T)[sp].d(A)[sp].d(A)[sp].d([m5C])[sp].d(T)[sp].d(T)[sp].d(G)[sp].[moe]([m5C])p.[moe](A)p.[moe]([m5C])[sp].[moe]([m5C])}$$$$ (last 3' nucleoside missing)", "3 h FOB score": 0.5},
      {"substance": "RNA1{[moe](T)[sp].[moe]([m5C])p.[moe]([m5C])p.[moe](A)p.[moe](T)[sp].d([m5C])[sp].d(T)[sp].d(T)[sp].d([m5C])[sp].d(A)[sp].d([m5C])[sp].d(T)[sp].d(T)[sp].d([m5C])[sp].d(A)[sp].[moe](G)p.[moe](A)p.[moe](G)[sp].[moe](A)}$$$$ (last 3' nucleoside missing)", "3 h FOB score": 0.5},
      {"substance": "RNA1{[moe](T)[sp].[moe]([m5C])p.[moe]([m5C])p.[moe](G)p.[moe](A)[sp].d(G)[sp].d(T)[sp].d([m5C])[sp].d(A)[sp].d(T)[sp].d([m5C])[sp].d([m5C])[sp].d(T)[sp].d([m5C])[sp].d([m5C])[sp].[moe](T)p.[moe]([m5C])p.[moe]([m5C])[sp].[moe](G)}$$$$ (last 3' nucleoside missing)", "3 h FOB score": 1},
      {"substance": "RNA1{[moe](T)[sp].[moe]([m5C])p.[moe]([m5C])p.[moe]([m5C])p.[moe](A)[sp].d(T)[sp].d(A)[sp].d([m5C])[sp].d(A)[sp].d(T)[sp].d(G)[sp].d(A)[sp].d(T)[sp].d(T)[sp].d(T)[sp].[moe](T)p.[moe](A)p.[moe](G)[sp].[moe](G)}$$$$ (last 3' nucleoside missing)", "3 h FOB score": 1.25},
      {"substance": "RNA1{[moe]([m5C])[sp].[moe](A)[sp].[moe](T)p.[moe]([m5C])p.[moe](A)[sp].d([m5C])[sp].d(T)[sp].d(T)[sp].d(A)[sp].d([m5C])[sp].d(A)[sp].d(A)[sp].d(A)[sp].d([m5C])[sp].d(T)[sp].[moe]([m5C])p.[moe](A)p.[moe]([m5C])[sp].[moe]([m5C])}$$$$ (last 3' nucleoside missing)", "3 h FOB score": 0},
      {"substance": "RNA1{[moe]([m5C])[sp].[moe](A)p.[moe](A)p.[moe](A)p.[moe](G)[sp].d(A)[sp].d(T)[sp].d(T)[sp].d([m5C])[sp].d([m5C])[sp].d(A)[sp].d([m5C])[sp].d(T)[sp].d(T)[sp].d(T)[sp].[moe]([m5C])p.[moe](T)p.[moe]([m5C])[sp].[moe]([m5C])}$$$$ (last 3' nucleoside missing)", "3 h FOB score": 7},
      {"substance": "RNA1{[moe]([m5C])[sp].[moe](A)p.[moe](G)p.[moe]([m5C])p.[moe]([m5C])[sp].d([m5C])[sp].d([m5C])[sp].d(A)[sp].d(A)[sp].d(A)[sp].d(A)[sp].d(G)[sp].d(A)[sp].d(A)[sp].d(T)[sp].[moe](G)p.[moe]([m5C])p.[moe]([m5C])[sp].[moe](A)}$$$$ (last 3' nucleoside missing)", "3 h FOB score": 0.5},
      {"substance": "RNA1{[moe]([m5C])[sp].[moe](A)p.[moe](T)p.[moe](G)p.[moe](A)[sp].d(G)[sp].d(T)[sp].d([m5C])[sp].d([m5C])[sp].d(A)[sp].d(A)[sp].d(T)[sp].d(G)[sp].d(A)[sp].d(T)[sp].[moe](T)p.[moe](G)p.[moe]([m5C])[sp].[moe](A)}$$$$ (last 3' nucleoside missing)", "3 h FOB score": 5.5},
      {"substance": "RNA1{[moe]([m5C])[sp].[moe](A)p.[moe](T)p.[moe](G)p.[moe](G)[sp].d([m5C])[sp].d(T)[sp].d(T)[sp].d([m5C])[sp].d([m5C])[sp].d(A)[sp].d([m5C])[sp].d(T)[sp].d([m5C])[sp].d(T)[sp].[moe](G)p.[moe](G)p.[moe]([m5C])[sp].[moe]([m5C])}$$$$ (last 3' nucleoside missing)", "3 h FOB score": 1},
      {"substance": "RNA1{[moe]([m5C])[sp].[moe](A)p.[moe](T)p.[moe](G)p.[moe]([m5C])[sp].d(G)[sp].d([m5C])[sp].d(T)[sp].d([m5C])[sp].d(A)[sp].d(T)[sp].d(A)[sp].d(A)[sp].d(A)[sp].d(T)[sp].[moe]([m5C])p.[moe](A)p.[moe]([m5C])[sp].[moe](A)}$$$$ (last 3' nucleoside missing)", "3 h FOB score": 3.5},
      {"substance": "RNA1{[moe]([m5C])[sp].[moe](A)p.[moe](T)p.[moe](T)p.[moe]([m5C])[sp].d(T)[sp].d([m5C])[sp].d(T)[sp].d(T)[sp].d(A)[sp].d(T)[sp].d(A)[sp].d(T)[sp].d(T)[sp].d([m5C])[sp].[moe]([m5C])p.[moe](T)p.[moe](T)[sp].[moe](A)}$$$$ (last 3' nucleoside missing)", "3 h FOB score": 0},
      {"substance": "RNA1{[moe]([m5C])[sp].[moe](A)p.[moe](T)p.[moe]([m5C])p.[moe](A)[sp].d([m5C])[sp].d(T)[sp].d(T)[sp].d(A)[sp].d([m5C])[sp].d(A)[sp].d(A)[sp].d(A)[sp].d([m5C])[sp].d(T)[sp].[moe]([m5C])p.[moe](A)p.[moe]([m5C])[sp].[moe]([m5C])}$$$$ (last 3' nucleoside missing)", "3 h FOB score": 0.5}
    ]}
  ]
}
